Data on nine compounds can be found in publication PMC6100557, “Quinazolinone-Amino Acid Hybrids as Dual Inhibitors of EGFR Kinase and Tubulin Polymerization” (Molecules : A Journal of Synthetic Chemistry and Natural …, 2018).

The test system of data set [1] is MCF-7 and MDA-MBA-231 cells. In words: Cytotoxic screening on the two cell lines, selectivity MCF-7 versus MDA-MBA-231. Type of data set: cell-based. Particulars: for Selectivity Indices S1: S1 = IC50 (MCF-7)/IC50 (MDA-MBA-231); for Cell Line (type of selectivity): S1 > S2: more selective to MDA-MBA-231, S2 > S1: more selective to MCF-7; for Selectivity Indices S2: S2 = IC50 (MDA-MBA-231)/IC50 (MCF-7). The procedure: (§1) Cells were cultured using reported culture media, incubated for 24 h, treated with different concentrations of tested derivatives and incubated for 48 h. MTT was added to extract the color, which was then measured by ELISA [12].

The test system of the next data set is MDA-MBA-231. Put plainly: In vitro cytotoxic screening (MTT assay), MDA-MBA-231. The class given is cell-based. Conditions: read-out: IC50 (µM) MDA-MBA-231. As to the method: as §1
A further data set relates to MCF-7. Put plainly: In vitro cytotoxic screening (MTT assay), MCF-7. Particulars: Homo sapiens, read-out: IC50 (µM) MCF-7. Type of data set: cell-based. As to the method: as §1
In another data set the target is T1, porcine tubulin protein (Sus scrofa, UniProt P02550+P02554).
T1 construct: purchased Cytoskeleton Inc. BK006P
Put plainly: Tubulin polymerization inhibition assay (CytoDYNAMIX Screen kit). Type of data set: biochemical. Particulars: absorbance 340 nm, 30 min, 37 °C.

Another data set deals with EGFR kinase (Homo sapiens, UniProt P00533). In words: EGFR inhibition assay (HTScan EGFR kinase assay kit).
The mark [2] stands for this setting: MTT assay, 48 h incubation, mean ± SD.
Setting [3] is: MCF7, MTT assay, 48 h incubation, mean ± SD.

Entries after “also recorded” stand apart in the source; their conditions may differ. Read-outs that look alike come from different tables or passages of the source.

EGFR kinase, sequence (P00533 672-1210 limits assumed): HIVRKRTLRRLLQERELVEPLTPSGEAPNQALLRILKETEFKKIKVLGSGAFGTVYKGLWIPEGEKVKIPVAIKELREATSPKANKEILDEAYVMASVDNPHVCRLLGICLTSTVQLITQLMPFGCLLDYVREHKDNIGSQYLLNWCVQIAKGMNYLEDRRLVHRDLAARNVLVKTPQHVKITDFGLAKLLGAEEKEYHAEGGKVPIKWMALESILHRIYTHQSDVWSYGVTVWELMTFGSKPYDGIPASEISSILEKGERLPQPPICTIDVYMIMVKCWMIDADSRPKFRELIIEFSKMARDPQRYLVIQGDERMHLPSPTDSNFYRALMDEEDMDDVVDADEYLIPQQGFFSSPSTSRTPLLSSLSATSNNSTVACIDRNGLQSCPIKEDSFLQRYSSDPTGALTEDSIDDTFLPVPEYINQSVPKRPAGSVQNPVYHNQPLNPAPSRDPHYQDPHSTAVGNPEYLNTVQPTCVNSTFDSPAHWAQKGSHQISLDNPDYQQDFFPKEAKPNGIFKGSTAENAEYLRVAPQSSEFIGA
T1 sequence (P02550 whole entry): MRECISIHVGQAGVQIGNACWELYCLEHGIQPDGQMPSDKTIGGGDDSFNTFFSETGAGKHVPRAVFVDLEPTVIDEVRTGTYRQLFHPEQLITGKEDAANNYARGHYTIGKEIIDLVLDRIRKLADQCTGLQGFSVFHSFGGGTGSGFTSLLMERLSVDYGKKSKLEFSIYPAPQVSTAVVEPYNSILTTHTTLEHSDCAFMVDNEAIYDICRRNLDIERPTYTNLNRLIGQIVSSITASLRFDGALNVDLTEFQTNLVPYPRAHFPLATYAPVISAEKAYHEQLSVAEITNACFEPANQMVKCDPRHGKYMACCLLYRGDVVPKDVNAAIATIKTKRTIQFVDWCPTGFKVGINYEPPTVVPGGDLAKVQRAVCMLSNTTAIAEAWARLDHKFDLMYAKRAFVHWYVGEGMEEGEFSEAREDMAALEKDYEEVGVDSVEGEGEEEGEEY
T1 sequence (P02554 whole entry): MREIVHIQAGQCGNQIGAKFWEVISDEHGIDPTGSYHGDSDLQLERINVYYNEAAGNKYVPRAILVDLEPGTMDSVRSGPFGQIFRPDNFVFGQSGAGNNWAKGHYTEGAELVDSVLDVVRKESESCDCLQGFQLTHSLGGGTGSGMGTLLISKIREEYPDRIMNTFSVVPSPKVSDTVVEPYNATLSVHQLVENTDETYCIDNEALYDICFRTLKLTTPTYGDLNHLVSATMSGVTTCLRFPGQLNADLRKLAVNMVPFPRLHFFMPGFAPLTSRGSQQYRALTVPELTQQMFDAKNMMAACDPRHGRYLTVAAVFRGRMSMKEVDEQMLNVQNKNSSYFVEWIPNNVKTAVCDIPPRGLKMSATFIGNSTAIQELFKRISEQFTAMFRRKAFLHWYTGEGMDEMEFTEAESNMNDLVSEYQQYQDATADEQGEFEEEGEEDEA
Text for EGFR kinase: High tech HTScan EGFR kinase assay kits (Cell Signaling Technology, Danvers, MA, USA) were used to measure EGFR kinase activity. The assay was achieved following the manufacturers’ instructions and reported procedures [16, 23].
Experimental for porcine tubulin protein: Cold porcine tubulin protein (>99% purity) was added to a G-PEM buffer (80 mM PIPES, 2 mM MgCl2, 0.5 mM EGTA, 1 mM GTP, pH 6.9) containing 15% glycerol with or without the identified compounds. […] The absorbance was monitored every minute for 30 min at 340 nm [16, 23].

Turning to `C[C@H](N)C(=O)Nn1c(-c2ccc(F)cc2)nc2ccc(F)cc2c1=O` [Compound B, (S)-2-amino-N-(6-fluoro-2-(4-fluorophenyl)-4-oxoquinazolin-3(4H)-yl)propanamide], the melting point lay in the range of 238 to 240 °C. Also, in data set [1], the “Selectivity Indices S1” value is on record as 1.59 ± 0.05, the “Cell Line (type of selectivity)” value is given as “more selective to MDA-MBA-231 than MCF-7; also recorded: MDA-MBA-231 selective” and the “Selectivity Indices S2” value stood at 0.63 ± 0.23. In the data set with MDA-MBA-231 (setting [2]), the IC50 was found to be 42.9 ± 2.64 µM. In the data set on MCF-7 (setting [3]), the half-maximal inhibitory concentration (IC50) came out at 68.5 ± 3.27 µM.
Take `N[C@@H](CCC(=O)O)C(=O)Nn1c(-c2ccc(F)cc2)nc2ccc(F)cc2c1=O` [Compound E, (S)-4-(6-fluoro-2-(4-fluorophenyl)-4-oxoquinazolin-3(4H)-ylcarbamoyl)-4-aminobutanoic acid]: the melting point was in the range of 244 to 246 °C. This compound also gave an IC50 on porcine tubulin protein of 6.24 µM. For the same compound, in data set [1], the “Selectivity Indices S1” value was 28.93 ± 0.08, the “Cell Line (type of selectivity)” value is reported as “more selective to MDA-MBA-231 than MCF-7; also recorded: MDA-MBA-231 selective” and the “Selectivity Indices S2” value was 0.03 ± 0.11. The compound also came in with an IC50 against EGFR kinase of 0.54538 ± 4e-05 µM. Also, the IC50 in the data set on MDA-MBA-231 (setting [2]) is 0.43 ± 0.02 µM. In addition, in the data set on MCF-7 (setting [3]), the IC50 was found to be 12.4 ± 5.73 µM.
As for `CCC(C)[C@H](N)C(=O)Nn1c(-c2ccc(F)cc2)nc2ccc(F)cc2c1=O` (stereo partly drawn) [D, (2S)-2-amino-N-(6-fluoro-2-(4-fluorophenyl)-4-oxoquinazolin-3(4H)-yl)-3-methylpentanamide], the melting point fell in the range of 248 to 250 °C. For the same compound, in data set [1], the “Selectivity Indices S1” value worked out at 1.51 ± 0.24, the “Cell Line (type of selectivity)” value is “more selective to MDA-MBA-231 than MCF-7; also recorded: MDA-MBA-231 selective” and the “Selectivity Indices S2” value is recorded as 0.66 ± 0.17. Besides, the IC50 with MDA-MBA-231 (setting [2]) was found to be 7.49 ± 0.42 µM. Further, in the data set on MCF-7 (setting [3]), the half-maximal inhibitory concentration (IC50) came out at 11.3 ± 1.25 µM.
`O=C(Nn1c(-c2ccc(F)cc2)nc2ccc(F)cc2c1=O)C1CCCN1` (centres unmarked) [H, N-(6-fluoro-2-(4-fluorophenyl)-4-oxoquinazolin-3(4H)-yl)pyrrolidine-2-carboxamide] registered a melting point of 235 to 237 °C. In data set [1], the “Selectivity Indices S1” value was found to be 0.11 ± 0.23, the “Cell Line (type of selectivity)” value is given as “more selective to MCF-7 than MDA-MBA-231; also recorded: MCF-7 selective” and the “Selectivity Indices S2” value was found to be 9.34 ± 0.02. The half-maximal inhibitory concentration (IC50) with MDA-MBA-231 (setting [2]) turned out to be 12 ± 1.33 µM. Moreover, the IC50 in the data set with MCF-7 (setting [3]) amounted to 1.28 ± 0.03 µM.
`NCC(=O)Nn1c(-c2ccc(F)cc2)nc2ccc(F)cc2c1=O` [A, 2-amino-N-(6-fluoro-2-(4-fluorophenyl)-4-oxoquinazolin-3(4H)-yl)acetamide]: the melting point fell in the range of 236 to 238 °C. Moreover, in data set [1], the “Selectivity Indices S1” value is given as 1.53 ± 0.12, the “Cell Line (type of selectivity)” value was “more selective to MDA-MBA-231 than MCF-7; also recorded: MDA-MBA-231 selective” and the “Selectivity Indices S2” value was found to be 0.65 ± 0.05. In addition, the concentration for half-maximal inhibition (IC50) in the data set with MDA-MBA-231 (setting [2]) is 16.3 ± 1.21 µM. The IC50 in the data set on MCF-7 (setting [3]) was 25 ± 1.61 µM.
`C#Cc1cccc(Nc2ncnc3cc(OCCOC)c(OCCOC)cc23)c1` [Erlotinib, erlotinib, reference compound]: the IC50 with MDA-MBA-231 (48 h) was 2.55 ± 0.19 µM; in the data set with MCF-7 (MCF7, 48 h) it was 1.14 µM.
For the compound `CC(C)[C@H](N)C(=O)Nn1c(-c2ccc(F)cc2)nc2ccc(F)cc2c1=O` [C, (S)-2-amino-N-(6-fluoro-2-(4-fluorophenyl)-4-oxoquinazolin-3(4H)-yl)-3-methylbutanamide], the melting point was 242 to 244 °C. In data set [1], the “Selectivity Indices S1” value is on record as 0.34 ± 0.18, the “Cell Line (type of selectivity)” value is reported as “more selective to MCF-7 than MDA-MBA-231; also recorded: MCF-7 selective” and the “Selectivity Indices S2” value turned out to be 2.98 ± 0.71. The IC50 in the data set with MDA-MBA-231 (setting [2]) is 3.45 ± 0.21 µM. For the same compound, in the data set with MCF-7 (setting [3]), the half-inhibitory concentration (IC50) was 1.16 ± 0.05 µM.
As for `N[C@@H](Cc1ccccc1)C(=O)Nn1c(-c2ccc(F)cc2)nc2ccc(F)cc2c1=O` [Compound G, (S)-2-amino-N-(6-fluoro-2-(4-fluorophenyl)-4-oxoquinazolin-3(4H)-yl)-3-phenylpropanamide], the melting point lay within 245 to 247 °C. Further, in data set [1], the “Selectivity Indices S1” value was determined as 0.02 ± 0.07, the “Cell Line (type of selectivity)” value is on record as “more selective to MCF-7 than MDA-MBA-231; also recorded: MCF-7 selective” and the “Selectivity Indices S2” value was determined as 56.07 ± 0.15. The same compound gave a half-inhibitory concentration (IC50) against EGFR kinase of 0.16397 ± 7e-05 µM. Further, the IC50 in the data set with MDA-MBA-231 (setting [2]) was determined as 24.7 ± 1.7 µM. Further, in the data set on MCF-7 (setting [3]), the 50% inhibitory concentration (IC50) was determined as 0.44 ± 0.01 µM.
In turn, `N[C@H](CS)C(=O)Nn1c(-c2ccc(F)cc2)nc2ccc(F)cc2c1=O` [F, (S)-2-amino-N-(6-fluoro-2-(4-fluorophenyl)-4-oxoquinazolin-3(4H)-yl)-3-mercaptopropanamide] had a melting point of 220 to 222 °C. For the same compound, in data set [1], the “Selectivity Indices S1” value is 0.15 ± 0.17, the “Cell Line (type of selectivity)” value is given as “more selective to MCF-7 than MDA-MBA-231; also recorded: MCF-7 selective” and the “Selectivity Indices S2” value was 6.46 ± 0.04. For the same compound, the half-inhibitory concentration (IC50) in the data set on MDA-MBA-231 (setting [2]) is 12.5 ± 5.88 µM. Besides, the 50% inhibitory concentration (IC50) with MCF-7 (setting [3]) was determined as 1.93 ± 0.08 µM.
